# US8097733B2, “Pyrazole derivatives as 5-LO-inhibitors” (Pfizer Inc., priority 2007, dated 2012)
# pIC50: −log10 of the molar value.
# What was measured:
# [1] = Emesis evaluation in beagle dogs, IV infusion; type: in vivo; settings: 8-12 kg beagle dogs, loading dose followed by slow infusion
# Protocol: The occurrence of these gastrointestinal symptoms after administration of these compounds limited their clinical utility. Experiments are undertaken to differentiate local gastrointestinal emetic stimuli during dissolution and absorption of an oral compound from emetic stimuli produced during systemic exposure through the bloodstream. […] These findings are observed after 8-12 kg purpose-bred beagle dogs are administered 4-(3-{[4-(1-methyl-1H-pyrazol-5-yl)phenyl]thio}phenyl)tetrahydro-2H-pyran-4-carboxamide by IV infusion, using a loading dose followed by a slow infusion to attain a peak blood level over 30 minutes to 1 hour in duration. More specifically, compounds are diluted in phosphate buffered saline to a concentration where 10 ml/kg total volume was administered through an intravenous catheter using an infusion pump, with approximately 90% of the total dose being delivered in the first 5 minutes, and the remaining dose administered over the next 25 minutes. Similar delivery methods to produce an exposure that approximates the systemic pharmacokinetic profile seen with oral delivery are anticipated to give similar results. […] For compounds of the invention, emesis, can for example be evaluated by administering the named compound orally at doses of 10 mg per kg, 100 mg per kg fasted, and 100 mg per kg fed, and evaluating emesis in dogs. […]
# [2] = target: T1, recombinant human 5-LOX (Homo sapiens, UniProt P09917); assay: Fluorescence Intensity 5-LOX Enzyme Assay; type: biochemical; settings: crude lysate of recombinant human 5-LOX; highest inhibitor concentration tested typically 25 μM
# T1 sequence (P09917 1-674): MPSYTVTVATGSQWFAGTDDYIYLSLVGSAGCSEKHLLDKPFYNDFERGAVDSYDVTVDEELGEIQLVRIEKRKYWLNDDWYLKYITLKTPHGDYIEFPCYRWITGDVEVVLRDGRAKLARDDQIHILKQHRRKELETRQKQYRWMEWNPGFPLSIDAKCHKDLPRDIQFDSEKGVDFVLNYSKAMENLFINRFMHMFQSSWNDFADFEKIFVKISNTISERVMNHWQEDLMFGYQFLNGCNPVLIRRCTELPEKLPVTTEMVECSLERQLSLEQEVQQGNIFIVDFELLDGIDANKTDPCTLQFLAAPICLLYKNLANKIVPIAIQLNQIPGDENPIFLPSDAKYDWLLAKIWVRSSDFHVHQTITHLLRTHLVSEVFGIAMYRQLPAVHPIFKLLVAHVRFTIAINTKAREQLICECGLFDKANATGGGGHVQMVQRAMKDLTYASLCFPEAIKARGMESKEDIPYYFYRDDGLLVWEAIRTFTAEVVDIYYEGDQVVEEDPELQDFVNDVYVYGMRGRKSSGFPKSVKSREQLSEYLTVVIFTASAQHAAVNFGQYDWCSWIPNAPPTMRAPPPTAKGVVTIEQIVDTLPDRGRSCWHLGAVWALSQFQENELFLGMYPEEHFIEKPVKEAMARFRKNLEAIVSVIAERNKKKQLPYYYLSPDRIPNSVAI
# Procedure, shortened: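 Crude lysate enzyme with H2DCFDA 10 μM (5 min dye pre-incubation), inhibitor pre-incubated 10 min; reaction started with 3 μM arachidonic acid plus 10 μM ATP in Tris pH 7.5, CaCl2, EDTA, 20 min at room temperature, acetonitrile stop. Fluorescein fluorescence; 7-point 4-parameter IC50, top 25 μM, 2.5% DMSO.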
# [3] = tested on: eicosanoid production in the rat air pouch; assay: Carrageenan-induced eicosanoid production in the rat air pouch; type: in vivo; settings: po, male Lewis rats, 3 mpk by gavage 1 hour prior to carrageenan
# Protocol: Carrageenan-Induced Eicosanoid Production in the Rat Air Pouch:
# Male Lewis rats (175-200 g), Charles River Laboratories, Wilmington, Mass.) were used in the study. Air pouches were produced by subcutaneous injection of 20 ml of sterile air into the intrascapular area of the back. Pouches were allowed to develop for 1 day. Animals (6 per group) were fasted with free access to water for 16 to 24 hours prior to drug administration. Drugs or vehicle were administered by gavage 1 hour prior to injection of 2 ml of a 1% suspension of carrageenan (FMC BioPolymer, Philadelphia, Pa., Cat. # GP209-NF) dissolved in saline into the pouch. At 3 hours post-carrageenan injection, 1 ml of 50 μg/ml calcium ionophore in saline (A23187, Sigma Chemical Co, St. Louis, M, Cat. #C-7522) was injected into the pouch and the pouch fluid collected 10 minutes later by lavage. The fluid was centrifuged at 3500 rpm for 10 minutes at 4° C., and the supernatants were collected for analysis. Leukotriene and prostaglandin levels were quantitated by ELISA according to the manufacturer's directions (Cayman Chemical Company, Ann Arbor, Mi).
# [4] = tested on: human whole blood (leukotriene and prostaglandin levels); assay: Eicosanoid production from human whole blood; type: cell-based; settings: human whole blood stimulated with calcium ionophore A23187 and arachidonic acid; ELISA
# Procedure, shortened: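 Pooled heparinized whole blood from healthy or asthmatic donors was preincubated with compound for 10 min at room temperature, with 2.5% DMSO final. It was stimulated with calcium ionophore A23187 plus arachidonic acid (30 μM) in 60% ethanol for 15 min at 37 °C. Plasma leukotrienes and prostaglandins were measured by ELISA.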
smiles,measurement,setting,value
Cn1nccc1-c1ccc(Sc2cccc(C3(C(N)=O)CCOCC3)c2)cc1 [4-(3-{[4-(1-methyl-1H-pyrazol-5-yl)phenyl]thio}phenyl)tetrahydro-2H-pyran-4-carboxamide],nausea and emesis,[1],produce nausea and emesis through systemic exposure
"C[C@H]1C[C@@](C(N)=O)(c2cccc(Sc3ccc(-c4ccnn4C)cc3)c2F)CCO1 [Example 29, (2S,4R)-4-(2-fluoro-3-(4-(1-methyl-1H-pyrazol-5-yl)phenylthio)phenyl)-2-methyl-tetrahydro-2H-pyran-4-carboxamide]",pIC50,[2],7.83
same,inhibition at 3 mg/kg,[3],100%
same,pIC50,[4],6.58
"Cn1nccc1Cc1ccc(Sc2cccc(C3(C(N)=O)CCOCC3)c2)cc1F [Example 33, 4-{3-[3-Fluoro-4-(2-methyl-2H-pyrazol-3-ylmethyl)phenylsulfanyl]-phenyl}-tetrahydro-pyran-4-carboxylic acid amide]",pIC50,[2],6.96
same,inhibition at 3 mg/kg,[3],76%
same,pIC50,[4],6.31
"Cn1nccc1C(=O)c1ccc(Sc2cccc(C3(C(N)=O)CCOCC3)c2)cc1 [Example 34, 4-[3-({4-[(1-methyl-1H-pyrazol-5-yl)carbonyl]phenyl}thio)phenyl]tetrahydro-2H-pyran-4-carboxamide]",pIC50,[2],7.40
same,inhibition at 3 mg/kg,[3],99.5%
same,pIC50,[4],6.26
"C[C@H]1C[C@@](C(N)=O)(c2cccc(Sc3ccc(C(=O)c4ccnn4C)cc3)c2)CCO1 [Example 39, (2S,4R)-2-methyl-4-(3-(4-(1-methyl-1H-pyrazole-5-carbonyl)phenylthio)phenyl)-tetrahydro-2H-pyran-4-carboxamide]",pIC50,[2],7.62
same,inhibition at 3 mg/kg,[3],66%
same,pIC50,[4],6.39
C[C@H]1C[C@@](C(N)=O)(c2cccc(Sc3ccc(C(=O)c4ccnn4C)cc3)c2F)CCO1 [Example 40],pIC50,[2],7.66
same,inhibition at 3 mg/kg,[3],96%
same,pIC50,[4],6.39
"Cn1nccc1Oc1ncc(Sc2cccc(C3(C(N)=O)CCOCC3)c2)cc1Cl [Example 41, 4-(3-(5-chloro-6-(1-methyl-1H-pyrazol-5-yloxy)pyridin-3-ylthio)phenyl)-tetrahydro-2H-pyran-4-carboxamide]",pIC50,[2],6.56
same,inhibition at 3 mg/kg,[3],98%
same,pIC50,[4],6.39
"Cn1nccc1-c1ccc(Sc2cccc(C3(C#N)CCOCC3)c2)cc1F [Example 46, 4-(3-{[3-fluoro-4-(1-methyl-1H-pyrazol-5-yl)phenyl]thio}phenyl)tetrahydro-2H-pyran-4-carbonitrile]",pIC50,[2],5.38
same,inhibition at 3 mg/kg,[3],0%
same,pIC50,[4],6.27
"Cn1nccc1-c1ccc(Sc2cccc(C3(C#N)CCOCC3)c2F)cc1 [Example 48, 4-(2-fluoro-3-{[4-(1-methyl-1H-pyrazol-6-yl)phenyl]thio}phenyl)tetrahydro-2H-pyran-4-carbonitrile]",pIC50,[2],6.41
same,inhibition at 3 mg/kg,[3],38%
same,pIC50,[4],6.91
"Cn1nccc1Oc1ccc(Sc2cccc(C3(C(N)=O)CCOCC3)c2)cc1C#N [Example 51, 4-[3-({3-cyano-4-[(1-methyl-1H-pyrazol-5-yl)oxy]phenyl}thio)phenyl]tetrahydro-2H-pyran-4-carboxamide]",pIC50,[2],6.26
same,inhibition at 3 mg/kg,[3],77%
same,pIC50,[4],6.69
"C[C@H]1C[C@@](C(N)=O)(c2cccc(Sc3cnc(Oc4ccnn4C)c(Cl)c3)c2F)CCO1 [Example 52, (2S,4R)-4-(3-(5-chloro-6-(1-methyl-1H-pyrazol-5-yloxy)pyridin-3-ylthio)-2-fluorophenyl)-2-methyl-tetrahydro-2H-pyran-4-carboxamide]",pIC50,[2],7.68
same,inhibition at 3 mg/kg,[3],100%
same,pIC50,[4],6.57
"C[C@H]1C[C@@](C#N)(c2cccc(Sc3ccc(C(=O)c4ccnn4C)cc3)c2F)CCO1 [Example 53, (2S,4R)+(2-fluoro-3-(4-(1-methyl-1H-pyrazole-5-carbonyl)phenylthio)phenyl)-2-methyl-tetrahydro-2H-pyran-4-carbonitrile]",pIC50,[2],7.18
same,inhibition at 3 mg/kg,[3],94%
same,pIC50,[4],6.46
"CNC(=O)C1(c2cccc(Sc3ccc(-c4ccnn4C)cc3)c2Cl)CCOCC1 [Example 55, 4-(2-chloro-3-{[4-(1-methyl-1H-pyrazol-5-yl)phenyl]thio}phenyl)-N-methyltetrahydro-2H-pyran-4-carboxamide]",pIC50,[2],6.45
same,inhibition at 3 mg/kg,[3],64%
same,pIC50,[4],5.91
"Cn1ncc(Cl)c1-c1ccc(Sc2cccc(C3(C(N)=O)CCOCC3)c2)cc1F [Example 56, 4-(3-{[4-(4-chloro-1-methyl-1H-pyrazol-5-yl)-3-fluorophenyl]thio}phenyl)tetrahydro-2H-pyran-4-carboxamide]",pIC50,[2],7.36
same,inhibition at 3 mg/kg,[3],62%
same,pIC50,[4],6.33
"Cn1ncc(Cl)c1-c1ccc(Sc2cccc(C3(C(N)=O)CCOCC3)c2)cc1 [Example 57, 4-(3-{[4-(4-chloro-1-methyl-1H-pyrazol-5-yl)phenyl]thio}phenyl)tetrahydro-2H-pyran-4-carboxamide]",pIC50,[2],7.07
same,inhibition at 3 mg/kg,[3],62%
same,pIC50,[4],6.29
"Cn1nccc1C(=O)c1ccc(Sc2cccc(C3(C(N)=O)CCOCC3)c2)cc1F [Example 58, 4-[3-({3-fluoro-4-[(1-methyl-1H-pyrazol-5-yl)carbonyl]phenyl}thio)phenyl]tetrahydro-2H-pyran-4-carboxamide]",pIC50,[2],6.81
same,inhibition at 3 mg/kg,[3],0%
same,pIC50,[4],5.94
